Test: Dynamic vapor sorption (DVS), gravimetric moisture sorption
Format: physicochemical
Conditions: at 80% Relative Humidity, 25° C.
Procedure: Dynamic Vapor Sorption (DVS) were collected conducted using an SMS DVS Advantage 1 system. For each sample analyzed approximately 10 mg of material was transferred into the DVS instrument and recorded the weight change with respect to the atmospheric humidity at 25° C. using the following parameters: Equilibrium dm/dt: 0.01%/min, (for min: 10 min and max: 180 min); drying setting were 0% RH for 120 min; RH (%) measurement step at 10% and RH (%) measurement step scope of 0-90-0%.

Compound	gravimetric moisture sorption
COCC1(O)CCC2(C)C(CCC3C2CCC2(C)C(C(=O)Cn4ccnc4)CCC32)C1.Nc1ccc(C(=O)O)c(O)c1 (stereo not drawn) [Compound 1 P-Aminosalicylate (Form A)]	about 4.0 % (by weight)
Br.COCC1(O)CCC2(C)C(CCC3C2CCC2(C)C(C(=O)Cn4ccnc4)CCC32)C1 (stereo not drawn) [Compound 1 HBr (Form B)]	about 0.2 % (by weight)
COC(=O)c1ccc2c(c1)NC(=O)/C2=C(\Nc1ccc(N(C)C(=O)CN2CCN(C)CC2)cc1)c1ccccc1.Cl [Compound 1 Hydrochloride (Form B)]	about 2.9 % (by weight)
COC[C@@]1(O)CC[C@@]2(C)[C@@H](CC[C@@H]3[C@@H]2CC[C@]2(C)[C@@H](C(=O)Cn4ccnc4)CC[C@@H]32)C1.O=S(=O)(O)c1ccc2ccccc2c1 [Compound 1 Napsylate (Form A)]	about 3.9 % (by weight)
COCC1(O)CCC2(C)C(CCC3C2CCC2(C)C(C(=O)Cn4ccnc4)CCC32)C1.O=C(O)C(Cl)Cl (stereo not drawn) [Compound 1 Dichloroacetate (Form A)]	about 1.8 % (by weight)
COCC1(O)CCC2(C)C(CCC3C2CCC2(C)C(C(=O)Cn4ccnc4)CCC32)C1.Cl (stereo not drawn) [Compound 1 Hydrochloride (Form A)]	about 3.6 % (by weight)
COCC1(O)CCC2(C)C(CCC3C2CCC2(C)C(C(=O)Cn4ccnc4)CCC32)C1.O=C(O)C(O)C(O)C(=O)O (stereo not drawn) [Compound 1 L(+)-Tartrate (Form B)]	about 1.7 % (by weight)
COCC1(O)CCC2(C)C(CCC3C2CCC2(C)C(C(=O)Cn4ccnc4)CCC32)C1.O=C(O)CC(O)C(=O)O [Compound 1 L-Malate (Form B)]	about 3.5 % (by weight)
COC[C@@]1(O)CC[C@@]2(C)[C@@H](CC[C@@H]3[C@@H]2CC[C@]2(C)[C@@H](C(=O)Cn4ccnc4)CC[C@@H]32)C1.O=C(O)CC(O)(CC(=O)O)C(=O)O [Compound 1 Citrate (Form A)]	about 3.6 % (by weight)
COC[C@@]1(O)CC[C@@]2(C)[C@@H](CC[C@@H]3[C@@H]2CC[C@]2(C)[C@@H](C(=O)Cn4ccnc4)CC[C@@H]32)C1.O=S(=O)(O)CCO [Compound 1 Isethionate (Form A)]	about 4.9 % (by weight)
CCS(=O)(=O)O.COCC1(O)CCC2(C)C(CCC3C2CCC2(C)C(C(=O)Cn4ccnc4)CCC32)C1 (stereo not drawn) [Compound 1 Ethanesulfonate (Form A)]	about 1.4 % (by weight)
COCC1(O)CCC2(C)C(CCC3C2CCC2(C)C(C(=O)Cn4ccnc4)CCC32)C1.O=C(O)c1cc(O)ccc1O (stereo not drawn) [Compound 1 Gentisate (Form A)]	about 3.1 % (by weight)
COC(=O)c1ccc2c(c1)NC(=O)/C2=C(\Nc1ccc(N(C)C(=O)CN2CCN(C)CC2)cc1)c1ccccc1.CS(=O)(=O)O [Compound 1 Mesylate (Form A)]	about 3.4 % (by weight)
COCC1(O)CCC2(C)C(CCC3C2CCC2(C)C(C(=O)Cn4ccnc4)CCC32)C1.O=CC(O)C(O)C(O)C(O)C(=O)O [Compound 1 D-Glucuronate (Form A)]	about 1.4 % (by weight)
COC[C@@]1(O)CC[C@@]2(C)[C@@H](CC[C@@H]3[C@@H]2CC[C@]2(C)[C@@H](C(=O)Cn4ccnc4)CC[C@@H]32)C1.O=S(=O)(O)O [Compound 1 Sulfate (Form A)]	about 6.2 % (by weight)
COCC1(O)CCC2(C)C(CCC3C2CCC2(C)C(C(=O)Cn4ccnc4)CCC32)C1.O=C1OC(C(O)CO)C(O)=C1O (stereo not drawn) [Compound 1 Ascorbate (Form A)]	about 5.7 % (by weight)
COC[C@@]1(O)CC[C@@]2(C)[C@@H](CC[C@@H]3[C@@H]2CC[C@]2(C)[C@@H](C(=O)Cn4ccnc4)CC[C@@H]32)C1.O=C(O)C(O)C(O)C(=O)O [Compound 1 L(+)-Tartrate (Form A)]	about 1.6 % (by weight)
COC[C@@]1(O)CC[C@@]2(C)[C@@H](CC[C@@H]3[C@@H]2CC[C@]2(C)[C@@H](C(=O)Cn4ccnc4)CC[C@@H]32)C1.O=C(O)CC(O)(CC(=O)O)C(=O)O [Compound 1 Citrate (Form B)]	about 2.8 % (by weight)
COC[C@@]1(O)CC[C@@]2(C)[C@@H](CC[C@@H]3[C@@H]2CC[C@]2(C)[C@@H](C(=O)Cn4ccnc4)CC[C@@H]32)C1.O=S(=O)(O)NC1CCCCC1 [Compound 1 Cyclamate (Form A)]	about 7.3 % (by weight)
COCC1(O)CCC2(C)C(CCC3C2CCC2(C)C(C(=O)Cn4ccnc4)CCC32)C1.Cc1ccc(S(=O)(=O)O)cc1 (stereo not drawn) [Compound 1 Tosylate (Form A)]	about 1.5 % (by weight)
COCC1(O)CCC2(C)C(CCC3C2CCC2(C)C(C(=O)Cn4ccnc4)CCC32)C1.O=C(O)c1ccc2ccccc2c1O (stereo not drawn)	about 4.6 % (by weight)
COCC1(O)CCC2(C)C(CCC3C2CCC2(C)C(C(=O)Cn4ccnc4)CCC32)C1.O=P(O)(O)O (stereo not drawn) [Compound 1 Phosphate (Form A)]	about 2.1 % (by weight)
COC(=O)c1ccc2c(c1)NC(=O)/C2=C(\Nc1ccc(N(C)C(=O)CN2CCN(C)CC2)cc1)c1ccccc1.Cl [Compound 1 Hydrochloride (Form C)]	about 0.7 % (by weight)
COC[C@@]1(O)CC[C@@]2(C)[C@@H](CC[C@@H]3[C@@H]2CC[C@]2(C)[C@@H](C(=O)Cn4ccnc4)CC[C@@H]32)C1.O=S(=O)(O)c1ccccc1 [Compound 1 Besylate (Form A)]	about 4.0 % (by weight)
COCC1(O)CCC2(C)C(CCC3C2CCC2(C)C(C(=O)Cn4ccnc4)CCC32)C1.O=C(O)CC(O)C(=O)O [Compound 1 L-Malate (Form A)]	about 2.0 % (by weight)

Test: not given
Format: physicochemical
Conditions: 40° C./75% RH, 1 w
Procedure: For each salt, approximately 5 mg compound was added into an 8 mL glass vial with a multi-hole aluminum foil cap, and kept at 60° C., 40° C./75% RH for 1 week. […] Appearance by visual observation were recorded followed by purity assessment and XPRD data collection on the residual solids.

Compound	Final purity	XRPD pattern	XRPD patterns
Br.COCC1(O)CCC2(C)C(CCC3C2CCC2(C)C(C(=O)Cn4ccnc4)CCC32)C1 (stereo not drawn) [Compound 1 HBr (Form B)]	98.9	Form B	–
COC[C@@]1(O)CC[C@@]2(C)[C@@H](CC[C@@H]3[C@@H]2CC[C@]2(C)[C@@H](C(=O)Cn4ccnc4)CC[C@@H]32)C1.O=C(O)CC(O)(CC(=O)O)C(=O)O [Compound 1 Citrate (Form A)]	99.4	Form A	–
COC[C@@]1(O)CC[C@@]2(C)[C@@H](CC[C@@H]3[C@@H]2CC[C@]2(C)[C@@H](C(=O)Cn4ccnc4)CC[C@@H]32)C1.O=C(O)CC(O)(CC(=O)O)C(=O)O [Compound 1 Citrate (Form B)]	98.3	Form B	–
COCC1(O)CCC2(C)C(CCC3C2CCC2(C)C(C(=O)Cn4ccnc4)CCC32)C1.CS(=O)(=O)O (stereo not drawn) [Mesylate (Form A)]	99.4	–	Form D

Same assay, conditions: 60° C., 1 w

Compound	Final purity	XRPD pattern	XRPD patterns
Br.COCC1(O)CCC2(C)C(CCC3C2CCC2(C)C(C(=O)Cn4ccnc4)CCC32)C1 (stereo not drawn) [Compound 1 HBr (Form B)]	98.8	Form B	–
COC[C@@]1(O)CC[C@@]2(C)[C@@H](CC[C@@H]3[C@@H]2CC[C@]2(C)[C@@H](C(=O)Cn4ccnc4)CC[C@@H]32)C1.O=C(O)CC(O)(CC(=O)O)C(=O)O [Compound 1 Citrate (Form A)]	99.5	Form A	–
COC[C@@]1(O)CC[C@@]2(C)[C@@H](CC[C@@H]3[C@@H]2CC[C@]2(C)[C@@H](C(=O)Cn4ccnc4)CC[C@@H]32)C1.O=C(O)CC(O)(CC(=O)O)C(=O)O [Compound 1 Citrate (Form B)]	97.7	Form B	–
COCC1(O)CCC2(C)C(CCC3C2CCC2(C)C(C(=O)Cn4ccnc4)CCC32)C1.CS(=O)(=O)O (stereo not drawn) [Mesylate (Form A)]	99.4	–	Form A

Test: not given
Format: physicochemical
Conditions: FaSSIF (original pH = 6.51), 37° C., 24 h

Compound	Final pH
Br.COCC1(O)CCC2(C)C(CCC3C2CCC2(C)C(C(=O)Cn4ccnc4)CCC32)C1 (stereo not drawn) [Compound 1 HBr (Form B)]	5.51

Same assay, conditions: FaSSIF (original pH = 6.51), after solubility test

Compound	Final pH (FaSSIF)
COCC1(O)CCC2(C)C(CCC3C2CCC2(C)C(C(=O)Cn4ccnc4)CCC32)C1.Nc1ccc(C(=O)O)c(O)c1 (stereo not drawn) [p-Aminosalicylate (Form A)]	5.12

Same assay, conditions: FeSSIF (original pH = 4.99), 37° C., 24 h

Compound	Final pH
Br.COCC1(O)CCC2(C)C(CCC3C2CCC2(C)C(C(=O)Cn4ccnc4)CCC32)C1 (stereo not drawn) [Compound 1 HBr (Form B)]	4.89

Same assay, conditions: FeSSIF (original pH = 4.99), after solubility test

Compound	Final pH (FeSSIF)
COCC1(O)CCC2(C)C(CCC3C2CCC2(C)C(C(=O)Cn4ccnc4)CCC32)C1.Nc1ccc(C(=O)O)c(O)c1 (stereo not drawn) [p-Aminosalicylate (Form A)]	5.06

Same assay, conditions: SGF (original pH = 1.82), 37° C., 24 h

Compound	Final pH
Br.COCC1(O)CCC2(C)C(CCC3C2CCC2(C)C(C(=O)Cn4ccnc4)CCC32)C1 (stereo not drawn) [Compound 1 HBr (Form B)]	1.89

Same assay, conditions: SGF (original pH = 1.82), after solubility test

Compound	Final pH (SGF)
COCC1(O)CCC2(C)C(CCC3C2CCC2(C)C(C(=O)Cn4ccnc4)CCC32)C1.Nc1ccc(C(=O)O)c(O)c1 (stereo not drawn) [p-Aminosalicylate (Form A)]	3.73

Test: not given
Format: physicochemical
Conditions: 1.2 million lux-hrs

Compound	Final purity	XRPD pattern	XRPD patterns
Br.COCC1(O)CCC2(C)C(CCC3C2CCC2(C)C(C(=O)Cn4ccnc4)CCC32)C1 (stereo not drawn) [Compound 1 HBr (Form B)]	98.4	Form B	–
COC[C@@]1(O)CC[C@@]2(C)[C@@H](CC[C@@H]3[C@@H]2CC[C@]2(C)[C@@H](C(=O)Cn4ccnc4)CC[C@@H]32)C1.O=C(O)CC(O)(CC(=O)O)C(=O)O [Compound 1 Citrate (Form A)]	99.5	Form A	–
COC[C@@]1(O)CC[C@@]2(C)[C@@H](CC[C@@H]3[C@@H]2CC[C@]2(C)[C@@H](C(=O)Cn4ccnc4)CC[C@@H]32)C1.O=C(O)CC(O)(CC(=O)O)C(=O)O [Compound 1 Citrate (Form B)]	99.3	Form B	–
COCC1(O)CCC2(C)C(CCC3C2CCC2(C)C(C(=O)Cn4ccnc4)CCC32)C1.CS(=O)(=O)O (stereo not drawn) [Mesylate (Form A)]	99.3	–	Form A

Same assay, conditions: Dark control

Compound	Final purity	XRPD pattern	XRPD patterns
Br.COCC1(O)CCC2(C)C(CCC3C2CCC2(C)C(C(=O)Cn4ccnc4)CCC32)C1 (stereo not drawn) [Compound 1 HBr (Form B)]	97.8	Form B	–
COC[C@@]1(O)CC[C@@]2(C)[C@@H](CC[C@@H]3[C@@H]2CC[C@]2(C)[C@@H](C(=O)Cn4ccnc4)CC[C@@H]32)C1.O=C(O)CC(O)(CC(=O)O)C(=O)O [Compound 1 Citrate (Form A)]	99.5	Form A	–
COC[C@@]1(O)CC[C@@]2(C)[C@@H](CC[C@@H]3[C@@H]2CC[C@]2(C)[C@@H](C(=O)Cn4ccnc4)CC[C@@H]32)C1.O=C(O)CC(O)(CC(=O)O)C(=O)O [Compound 1 Citrate (Form B)]	99.1	Form B	–
COCC1(O)CCC2(C)C(CCC3C2CCC2(C)C(C(=O)Cn4ccnc4)CCC32)C1.CS(=O)(=O)O (stereo not drawn) [Mesylate (Form A)]	99.4	–	Form A

Reference: US10927141B2 (priority 2018, dated 2021)
